Reference: patent US20180346518A1, “LYSOBACTIN FOR USE IN THE TREATMENT OF BOVINE MASTITIS” (BAYER ANIMAL HEALTH GMBH, priority 2015, published 2018)
≈ marks a conversion by molar mass, not a printed value. Numbered stars: 1 amine (or outer) side, 2 acyl side, 3 side chain; on linkers, the order of the positions; unused ones are H or OH. Bridge positions count the residues as written; N and C are the ends. Square brackets hold non-standard residues; d marks the D form. Peptide text beside a SMILES is read from it. Phe(3R-OH) = O=C([C@@H](N[*:1])[C@H](O[*:3])c1ccccc1)[*:2]; Asn(3S-OH) = NC(=O)[C@@H](O)[C@H](N)C(=O)O; Leu(3R-OH) = CC(C)[C@@H](O)[C@H](N)C(=O)O; aThr = C[C@H](O)[C@H](N)C(=O)O

Key:
[1] = test system: Coagulase-negative staphylococci; assay: microbroth dilution MIC (CLSI), MIC90; assay type: cell-based
Description: (§1) The in vitro antibacterial activity of lysobactin against common mastitis pathogens such as Staphylococcus aureus, Coagulase-negative staphylococci, Streptococcus uberis, Streptococcus dvsgalactiae, Streptococcus agalactiae, Trueperella pyogenes, Escherichia coli, or Klebsiella pneumoniae was assessed by microbroth dilution MIC methodology as described by the Clinical and Laboratory Standards Institute (CLSI) in order to obtain the Minimal Inhibitory Concentration (MIC), which is defined as the lowest concentration of a substance that prevents visible growth of a bacterium. The results expressed as MIC90 are summarized in the following table, where the MIC90 is defined as the concentration at which the growth of at least 90% of the strains of a given species is inhibited.

Streptococcus agalactiae = assay: microbroth dilution MIC (CLSI), MIC90; assay type: cell-based
Description: as §1

Escherichia coli = assay: microbroth dilution MIC (CLSI), MIC90; assay type: cell-based
Description: as §1

Streptococcus uberis [2] = assay: microbroth dilution MIC (CLSI), MIC90; assay type: cell-based
Description: as §1

[3] = test system: Streptococcus dysgalactiae; assay: microbroth dilution MIC (CLSI), MIC90; assay type: cell-based
Description: as §1

Staphylococcus aureus [4] = assay: microbroth dilution MIC (CLSI), MIC90; assay type: cell-based
Description: as §1

Trueperella pyogenes = assay: microbroth dilution MIC (CLSI), MIC90; assay type: cell-based
Description: as §1

Klebsiella pneumoniae = assay: microbroth dilution MIC (CLSI), MIC90; assay type: cell-based
Description: as §1

Streptococcus uberis [5] = assay: dairy cow udder infection model with S. uberis; assay type: in vivo, lactating dairy cows
Description: Seventy-two healthy lactating dairy cows were experimentally infected with the mastitis pathogen Streptococcus uberis on two udder quarters per cow. […] Treatments were randomly assigned to 41 (clinical) or 37 (microbiological) udder quarters in total, either 50 mg lysobactin per quarter (in 15/13 quarters), or 150 mg lysobactin (in 15/14 quarters), or Ubrolexin® (in 11/10 quarters) as positive control. The diseased quarters were treated with these intramammary formulations two times with an interval of 24 hours in between. Udders were clinically examined and milk samples were taken before treatment and several times after that until three weeks after the second administration. Milk was inspected visually for deviation in its consistency and samples were evaluated for presence of the challenge organism to confirm the diagnosis mastitis. Diseased udder quarters were considered microbiologically cured when Streptococcus uberis found in milk samples shortly before treatment could not be isolated from any milk sample taken within the time period between the seventh and the twenty-first day after the second treatment. Clinical cure was achieved when the local symptoms of mastitis completely disappeared or were at the most of very slight nature.

[6] = test system: Staphylococcus aureus ATCC 29740; assay: spontaneous resistance development; assay type: cell-based; details: for obtained colonies: plated CFU 3.52 × 10^9
Description: (§2) The frequency of spontaneous resistance development was assessed by plating at least 1×10^9 colony forming units of the respective bacterial strain on agar plates containing lysobactin at either 4× or 8× the MIC and incubating the plates at 35+/−2° C. […] The resulting number is defined as the spontaneous resistance frequency, and is an indication for the likelihood of resistant isolates to appear during an infection.

[7] = test system: Streptococcus uberis ATCC 27958; assay: spontaneous resistance development; assay type: cell-based; details: for obtained colonies: plated CFU 2.4 × 10^10
Description: as §2

Staphylococcus aureus [8] = assay: Staphylococcus aureus acute mouse mastitis model; assay type: in vivo, lactating CD-1 mice
Description: The efficacy of lysobactin (formulated in a hydrogel at pH 4.7) was tested in a Staphylococcus aureus acute mouse mastitis model established at the University of Sherbrooke, Canada (Broui-llette et al, Vet. Microbiol. (2004) 4:253-262), that is hereby incorporated by reference. Both the abdominal mammary glands (L4 and R4) of lactating CD-1 mice were intramammarily infected with 100 CFU (colony forming units) of S. aureus. The mice were treated intramammarily with lysobactin four hours after infection. Each treatment group contained at least 3 mice (6 quarters) 14 hours later (18 hours after inoculation) mice were sacrificed, mammary glands were harvested and the CFU content evaluated by plating 10-fold serial dilutions of mammary gland homogenates. The CFU content was expressed as log10 count. The detection limit was 200 CFU/g of gland. Glands with less than 200 CFU/g were regarded as cleared.

Streptococcus uberis [9] = assay: Streptococcus uberis challenge mouse mastitis model; assay type: in vivo, lactating mice; details: 100, 200, 400 or 800 μg/gland hydrogel, 18 h after infection; all glands, with one exception in the highest dosing group
Description: The efficacy of lysobactin (formulated in a hydrogel at pH 4.7) was tested in a Streptococcus uberis challenge mouse mastitis model. Twenty lactating mice were experimentally infected on the fourth pair of mammary glands with S. uberis around 12-15 days after birth of the offspring. Four hours after inoculation, groups of four mice were treated on the same glands with lysobactin at 100, 200, 400, or 800 μg/gland formulated as hydrogel. The fifth group was treated solely with the hydrogel vehicle as negative control. Eighteen hours after infection the animals were euthanized, the glands were removed, homogenized, and bacterial colony forming units (CFUs) were determined by established microbiological methods. Subsequently CFU/mL homogenate as well as CFU/g of gland were calculated. The detection limit was approximately 100 CFU/g of gland. Antimicrobial activity of lysobactin against Strep uberis was determined by comparison of the mean CFUs/gland of the different dosing groups and the negative control group.

[10] = 150 mg per quarter, Day 7 after second treatment

In the case of `CC[C@H](C)[C@@H]1NC(=O)[C@@H](CCCNC(=N)N)NC(=O)[C@H](CC(C)C)NC(=O)[C@H]([C@H](O)C(C)C)NC(=O)[C@@H](NC(=O)[C@H](CC(C)C)NC(=O)[C@H](N)CC(C)C)[C@@H](c2ccccc2)OC(=O)[C@H](CO)NC(=O)[C@H]([C@H](O)C(N)=O)NC(=O)CNC(=O)[C@H]([C@H](C)O)NC1=O` [lysobactin] (H-[dL]L[Phe(3R-OH)][Leu(3R-OH)]L[dR]I[aThr]G[Asn(3S-OH)]S; ester 3-C), the MIC90 [1] is reported as 0.5 µg/mL (≈ 0.392 µM), the MIC90 (Streptococcus agalactiae) is reported as 0.25 µg/mL (≈ 0.196 µM) and the MIC90 (Escherichia coli) is reported as over 16 µg/mL. It also gave an MIC90 (Streptococcus uberis [2]) of 0.125 µg/mL (≈ 0.0979 µM), an MIC90 [3] of 0.25 µg/mL (≈ 0.196 µM) and an MIC90 (Staphylococcus aureus [4]) of 0.5 µg/mL (≈ 0.392 µM). For the same molecule, the MIC90 (Trueperella pyogenes) was 0.5 µg/mL (≈ 0.392 µM), the MIC90 (Klebsiella pneumoniae) was over 16 µg/mL and the microbiological cure rate (Streptococcus uberis [5]; 50 mg per quarter, 2 treatments 24 h apart, Day 7 after second treatment) was 84.6%. For the same molecule, the “local clinical cure rate” value (Streptococcus uberis [5]; 50 mg per quarter, Day 7 after second treatment) was 86.7%, the microbiological cure rate (Streptococcus uberis [5]; 50 mg per quarter, Day 21 after second treatment) was 92.31% and the “local clinical cure rate” value (Streptococcus uberis [5]; [10]) was 86.7%. The microbiological cure rate (Streptococcus uberis [5]; [10]) was 71.4%, the microbiological cure rate (Streptococcus uberis [5]; 150 mg per quarter, Day 21 after second treatment) was 85.71% and the frequency of resistance ([6]; 24 h, 2 μg/ml (4x MIC)) was <2.84 × 10^−10. The obtained colonies ([6]; 24 h, 2 μg/ml (4x MIC)) was 0, the frequency of resistance ([6]; 24 h, 4 μg/ml (8x MIC)) was <2.84 × 10^−10 and the obtained colonies ([6]; 24 h, 4 μg/ml (8x MIC)) was 0. For the same molecule, the frequency of resistance ([6]; 48 h, 2 μg/ml (4x MIC)) was <2.84 × 10^−10, the obtained colonies ([6]; 48 h, 2 μg/ml (4x MIC)) was 0 and the frequency of resistance ([6]; 48 h, 4 μg/ml (8x MIC)) was <2.84 × 10^−10. The obtained colonies ([6]; 48 h, 4 μg/ml (8x MIC)) was 0, the frequency of resistance ([7]; 24 h, 2 μg/ml (4x MIC)) was <4.17 × 10^−11 and the obtained colonies ([7]; 24 h, 2 μg/ml (4x MIC)) was 0. For the same molecule, the frequency of resistance ([7]; 24 h, 4 μg/ml (8x MIC)) was <4.17 × 10^−11, the obtained colonies ([7]; 24 h, 4 μg/ml (8x MIC)) was 0 and the frequency of resistance ([7]; 48 h, 2 μg/ml (4x MIC)) was <4.17 × 10^−11. The obtained colonies ([7]; 48 h, 2 μg/ml (4x MIC)) was 0, the frequency of resistance ([7]; 48 h, 4 μg/ml (8x MIC)) was <4.17 × 10^−11 and the obtained colonies ([7]; 48 h, 4 μg/ml (8x MIC)) was 0. For the same molecule, the “reduction of median CFU content of mammary glands” value (Staphylococcus aureus [8]; 50 μg intramammary, hydrogel pH 4.7, 4 h after infection, glands harvested 18 h after inoculation) was “ca. 4 log10”, the “clearance of infection from glands” value (Staphylococcus aureus [8]; 400 μg intramammary, hydrogel pH 4.7, cleared = less than 200 CFU/g of gland) was “eliminates the infection from all infected glands” and the “bacterial counts in glands” value (Streptococcus uberis [9]) was < 10^2 CFU/g.
